Measurements taken from patent US8933022B2, “Methods and compositions for the treatment and prevention Hypoglycemia and related disorders” (JDS Therapeutics, LLC, priority 2011, dated 2015).
Marks after values point to notes of the source that are not given here.

What was measured:
[1] = system: insulin; assay: Brain insulin levels in type-1 diabetes induced rats; assay type: in vivo, Wistar rats; conditions: bands, STZ rats, n = 7; control = 100.00
Procedure: (§1) Forty-two Wistar rats were assigned to one of 6 experimental groups: 1) positive control: rats injected with saline 2) type-1 diabetes group: rats injected with streptozotocin (STZ, 65 mg/kg i.p.) to damage beta cells (n=35). Diabetic rats were then administered with a) none, b) Zn alone (6.23 μg ZnO), c) Cr alone (47.7 μg Cr-histidinate), d) Zn-insulin (6.23 μg ZnO+3 IU Ins/100 g BW), or e) Cr-insulin (47.7 μg Cr-histidinate+3 IU Ins/100 g BW), daily for 26 days (n=7 per subgroup). Body weights were measured at the beginning and end of the experiment.
(§2) Blood samples were collected on days—2 (beginning), 0 (induction), 4, 6, 12, and 26 for blood biochemistry. At the end of the experiment, rats were sacrificed for brain tissue GLUTs (1 and 3). Data were analyzed using one-way ANOVA with LSD option for mean comparison.

[2] = system: Tryptophan; assay: Brain tryptophan in type-1 diabetes induced rats; assay type: in vivo, Wistar rats; conditions: STZ rats, n = 7; footnote: daily for 8 weeks
[3] = system: GLUT-1; assay: Cerebral GLUT-1 expression in type-1 diabetes induced rats; assay type: in vivo, Wistar rats; conditions: STZ rats, daily for 26 days; control = 100.00
Procedure: as §1, §2

[4] = system: NFK (nuclear factor kappa B); assay: Brain NFK levels in type-1 diabetes induced rats; assay type: in vivo, Wistar rats; conditions: bands, STZ rats, n = 7; control = 100.00
Procedure: as §1, §2

[5] = system: Nrf2; assay: Hippocampus Nrf2 expression in insulin-induced hypoglycemic rats; conditions: 15 U insulin/kg i.p., 110 μg/kg/day, one week, mean ± s.d.
Procedure: (§3) In order to evaluate chromium's potential protective effects preventing insulin-induced hypoglycemia, animals were administered insulin to induce hypoglycemia, and markers of hypoglycemic brain damage were compared in animals with and without administration of chromium.
(§4) Briefly, hypoglycemia was induced in Sprague-Dawley rats (males, 8-weeks old) by intraperitoneal injection of 15 U insulin/kg BW. The rats were separated into four groups of 15 rats each: (1) a control group not receiving insulin (“Control”); (2) a group not administered chromium (“Hypo”); (3) a group administered 110 μg/kg/day of chromium picolinate (CrPic); and, a group administered 110 μg/kg/day of chromium histidinate (CrHis). After one week of dosing, brains were removed from the sacrificed rats and analyzed for markers of hypoglycemic damage: GLUT-1; GLUT-3; Nrf2; GFAP; and HNE.

[6] = Brain chromium levels in insulin-induced hypoglycemic rats; conditions: 15 U insulin/kg i.p., 110 μg/kg/day, one week, mean ± s.d.
Procedure: as §3, §4

[7] = Body weight of type-1 diabetes induced rats (Example 8); assay type: in vivo, Wistar rats; conditions: Example 8, STZ rats, n = 7; for Initial BW: before treatment; for BW Change / Final BW: daily for 26 days
Procedure: as §1, §2

[8] = system: OCT-2; assay: Kidney OCT-2 levels in type-1 diabetes induced rats; assay type: in vivo, Wistar rats; conditions: bands, STZ rats, n = 7; control = 100.00
[9] = system: GLUT-3; assay: Brain GLUT-3 expression in insulin-induced hypoglycemic rats; conditions: 15 U insulin/kg i.p., 110 μg/kg/day, one week, mean ± s.d.
Procedure: as §3, §4

[10] = system: GFAP; assay: Hippocampus GFAP expression in insulin-induced hypoglycemic rats; conditions: 15 U insulin/kg i.p., 110 μg/kg/day, one week, mean ± s.d.
Procedure: as §3, §4

[11] = system: MRP2 (multidrug resistance protein 2); assay: Kidney MRP2 levels in type-1 diabetes induced rats; conditions: bands, STZ rats, n = 7; control = 100.00
Procedure: as §1, §2

[12] = Blood biochemistry of type-1 diabetes induced rats at the end of the experiment; assay type: in vivo, Wistar rats; conditions: STZ rats, daily for 26 days
Procedure: as §1, §2

[13] = system: GLUT-1; assay: Brain GLUT-1 expression in insulin-induced hypoglycemic rats; conditions: 15 U insulin/kg i.p., 110 μg/kg/day, one week, mean ± s.d.
Procedure: as §3, §4

[14] = system: GLUT-3; assay: Cerebral GLUT-3 expression in type-1 diabetes induced rats; assay type: in vivo, Wistar rats; conditions: STZ rats, daily for 26 days; control = 100.00
Procedure: Forty-two Wistar rats were assigned to one of 6 experimental groups: 1) positive control: rats injected with saline 2) type-1 diabetes group: rats injected with streptozotocin (STZ, 65 mg/kg i.p.) to damage beta cells (n=35). Diabetic rats were then administered with a) none, b) Zn alone (6.23 μg ZnO), c) Cr alone (47.7 μg Cr-histidinate), d) Zn-insulin (6.23 μg ZnO+3 IU Ins/100 g BW), or e) Cr-insulin (47.7 μg Cr-histidinate+3 IU Ins/100 g BW), daily for 26 days (n=7 per subgroup).
At the end of the experiment, rats were sacrificed for brain tissue GLUTs (1 and 3). Data were analyzed using one-way ANOVA with LSD option for mean comparison.

[15] = Serum and brain chromium in type-1 diabetes induced rats; conditions: STZ rats, n = 7; footnote: daily for 8 weeks
Procedure: as §1, §2

[16] = system: NFK (nuclear factor kappa B); assay: Kidney NFK levels in type-1 diabetes induced rats; assay type: in vivo, Wistar rats; conditions: bands, STZ rats, n = 7; control = 100.00
[17] = system: OCT-1 (organic cation transporter 1); assay: Kidney OCT-1 levels in type-1 diabetes induced rats; assay type: in vivo, Wistar rats; conditions: bands, STZ rats, n = 7; control = 100.00 (percentage of control)
[18] = Serum glucose 0.5 hrs after insulin injection in insulin-induced hypoglycemic rats; assay type: in vivo, Sprague-Dawley rats; conditions: 15 U insulin/kg i.p., 110 μg/kg/day chromium complex, one week, mean ± s.d.
[19] = system: Serotonin; assay: Brain serotonin in type-1 diabetes induced rats; assay type: in vivo, Wistar rats; set-up: unit not given here; conditions: STZ rats, n = 7; footnote: daily for 8 weeks
[20] = system: HNE; assay: Hippocampus HNE expression in insulin-induced hypoglycemic rats; conditions: 15 U insulin/kg i.p., 110 μg/kg/day, one week, mean ± s.d.
Procedure: as §3, §4

[21] = Glucose pattern before and after injection in type-1 diabetes induced rats; assay type: in vivo, Wistar rats; conditions: STZ rats; for Glucose, Day 4, After / Glucose, Day 6, After / Glucose, Day 12, After / Glucose, Day 21, After: after injection; for Glucose, Day 4, After / Glucose, Day 4, Before: no unit in table (mg/dl); for Glucose, Day 6, After / Glucose, Day 12, After / Glucose, Day 21, After / Glucose, Day 6, Before / Glucose, Day 12, Before / Glucose, Day 21, Before: no unit in table; for Glucose, Day 4, Before / Glucose, Day 6, Before / Glucose, Day 12, Before / Glucose, Day 21, Before: before injection
Procedure: as §1, §2

chromium histidinate [CrHis]
Brain ins [1]: 47.89 ± 4.67^c | Brain Tryptophan [2]: 4.74 ± 0.36^d mcg/g | cerebral GLUT-1 expression [3]: 53.81 ± 3.53^c | Brain nfk [4]: 134.24 ± 4.10^b | Hippocampus Nrf2 Expression [5]: 61.8 ± 1.4 % Control | Brain Cr Levels [6]: 21.6 ± 1.7 ng/g | Initial BW [7]: 195.43 ± 5.94 g | BW Change [7]: −10.17 ± 3.94^bc % | Final BW [7]: 176.57 ± 12.27^bc g | Kidney oct2 [8]: 53.50 ± 1.13^d | Cerebellum GLUT-3 Expression [9]: 166.9 ± 2.2 % Control | Cortex GLUT-3 Expression [9]: 287.5 ± 31.3 % Control | Hippocampus GLUT-3 Expression [9]: 177.8 ± 4.7 % Control | Hippocampus GFAP Expression [10]: 204.9 ± 4.9 % Control | Kidney mrp2 [11]: 140.21 ± 2.05^b | ALP [12]: 442 ± 13^bc U/L | ALT [12]: 125 ± 12^bc U/L | AST [12]: 291 ± 24^ab U/L | Albumin [12]: 2.74 ± 0.06^ab g/dL | CK [12]: 6745 ± 934^b U/L | Creatinine [12]: 0.90 ± 0.08^bc mg/dL | Glucose [12]: 423 ± 15^bc mg/dL | Insulin [12]: 22.0 ± 0.8^bc μU/mL | K [12]: 5.57 ± 0.12^b mmol/L | LDH [12]: 2367 ± 52^b U/L | Total protein [12]: 6.07 ± 0.12^b g/dL | Urea [12]: 62.1 ± 2.5^bc mg/dL | Uric acid [12]: 6.21 ± 0.57^b mg/dL | Cerebellum GLUT-1 Expression [13]: 83.0 ± 4.2 % Control | Cortex GLUT-1 Expression [13]: 99.9 ± 7.3 % Control | Hippocampus GLUT-1 Expression [13]: 103.7 ± 2.8 % Control | cerebral GLUT-3 expression [14]: 49.41 ± 2.39^c | Brain Cr [15]: 11.87 ± 0.89^c ng/g | Serum Cr [15]: 48.64 ± 2.70^c mcg/g | Kidney nfk [16]: 118.86 ± 1.47^b | Kidney oct1 [17]: 50.90 ± 1.71^d | Serum Glucose at 0.5 hrs [18]: 42.6 ± 6.8 mg/dL | Brain Serotonin [19]: 512 ± 7 | Hippocampus HNE Expression [20]: 140.1 ± 12.0 % Control | Glucose, Day 4, After [21]: 237 | Glucose, Day 6, After [21]: 349 | Glucose, Day 12, After [21]: 349 | Glucose, Day 21, After [21]: 303 | Glucose, Day 4, Before [21]: 403 | Glucose, Day 6, Before [21]: 330 | Glucose, Day 12, Before [21]: 340 | Glucose, Day 21, Before [21]: 368

chromium picolinate [CrPic]
Hippocampus Nrf2 Expression [5]: 38.9 ± 3.6 % Control | Cerebellum GLUT-3 Expression [9]: 206.3 ± 6.4 % Control | Cortex GLUT-3 Expression [9]: 319.5 ± 14.6 % Control | Hippocampus GLUT-3 Expression [9]: 198.6 ± 8.9 % Control | Hippocampus GFAP Expression [10]: 251.2 ± 9.1 % Control | Cerebellum GLUT-1 Expression [13]: 75.6 ± 7.6 % Control | Cortex GLUT-1 Expression [13]: 122.8 ± 1.3 % Control | Hippocampus GLUT-1 Expression [13]: 102.3 ± 5.5 % Control | Serum Glucose at 0.5 hrs [18]: 40.7 ± 5.2 mg/dL | Hippocampus HNE Expression [20]: 162.5 ± 12.4 % Control

[O]=[Zn] [STZ + Zn, zinc oxide]
Brain ins [1]: 44.08 ± 3.31^c | Brain Tryptophan [2]: 4.54 ± 0.23^d mcg/g | cerebral GLUT-1 expression [3]: 46.82 ± 3.23^c | Brain nfk [4]: 150.59 ± 2.73^b | Initial BW [7]: 195.43 ± 7.63 g | BW Change [7]: −9.71 ± 4.03^bc % | Final BW [7]: 175.71 ± 7.67^bc g | Kidney oct2 [8]: 51.38 ± 1.17^d | Kidney mrp2 [11]: 148.73 ± 2.74^b | ALP [12]: 453 ± 11^b U/L | ALT [12]: 143 ± 9^b U/L | AST [12]: 328 ± 17^a U/L | Albumin [12]: 2.59 ± 0.06^b g/dL | CK [12]: 6872 ± 1248^b U/L | Creatinine [12]: 1.05 ± 0.07^b mg/dL | Glucose [12]: 456 ± 13^ab mg/dL | Insulin [12]: 20.9 ± 0.9^bc μU/mL | K [12]: 5.53 ± 0.09^b mmol/L | LDH [12]: 2564 ± 85^ab U/L | Total protein [12]: 5.91 ± 0.07^b g/dL | Urea [12]: 65.6 ± 1.0^b mg/dL | Uric acid [12]: 6.49 ± 0.69^ab mg/dL | cerebral GLUT-3 expression [14]: 43.41 ± 3.53^c | Brain Cr [15]: 9.05 ± 0.56^d ng/g | Serum Cr [15]: 33.65 ± 2.26^d mcg/g | Kidney nfk [16]: 120.31 ± 1.65^b | Kidney oct1 [17]: 50.02 ± 2.05^d | Glucose, Day 4, After [21]: 303 | Glucose, Day 6, After [21]: 372 | Glucose, Day 12, After [21]: 412 | Glucose, Day 21, After [21]: 329 | Glucose, Day 4, Before [21]: 457 | Glucose, Day 6, Before [21]: 350 | Glucose, Day 12, Before [21]: 421 | Glucose, Day 21, Before [21]: 380
